The results in this text go back to patent publication US20210290648A1, “Potentiation of B-Lactam Antibiotics and B-Lactam/B-Lactamase Inhibitor Combinations Against Multidrug and Extensively Drug-Resistant Pseudomonas Aeruginosa Using Non-Ribosomal Tobramycin-Cyclam Conjugates” (University of Manitoba, priority 2018, published 2021).

One test relates to PAO200. The test is classed as cell-based, Pseudomonas aeruginosa. The note with it: for MIC of antibiotic alone in PAO200: PAO200 efflux-deficient. An excerpt: (§1) PAO200 is a tnexA-rnexB-oprM deletion strain while PAO750 lacks five important RND pumps (McxAB-OprM, MexCD-OprJ, MexEF-OprN, Mex JK, and MexXY) and the outer membrane protein OpmH (46, 47). Some of these pumps are homologues of broad substrate specificities that extrude different classes of antimicrobial agents and confer resistance on P. aeruginosa (48).
(§2) Antimicrobial Susceptibility Assay. The in vitro antimicrobial activity of all compounds/antibiotics against a panel of bacteria was evaluated by microbroth dilution method in accordance with the Clinical and Laboratory Standards Institute (CLSI) guidelines. Overnight grown bacterial cultures were diluted in saline to achieve a 0.5 McFarland turbidity, followed by 1:50 dilution in Mueller-Hinton broth (MHB) for inoculation to a final concentration of approximately 5×10^5CFU/mL. The antimicrobial agents were 2-fold serially diluted in MHB in a 96-well plate and incubated at 37° C. with equal volumes of inoculum for 18 h. The lowest concentration that prevented the visible growth of bacteria was defined as the MIC for each antimicrobial agent. The broth with or without bacterial cells was used as positive or negative control, respectively.
(§3) Checkerboard Assay. Combination studies with different antibiotics were performed in 96-well plates as previously described (22). Briefly, the antibiotic of interest was serially diluted in MHB along the abscissa while the adjuvant (newly synthesized conjugates) was serially diluted in MHB along the ordinate. This creates a 10×7 matrix wherein each well consists of a combination of different antibiotic and adjuvant concentrations. Overnight grown bacterial cultures were diluted in saline to achieve a 0.5 McFarland turbidity, followed by 1:50 dilution in Mueller-Hinton broth (MHB) for inoculation to a final concentration of approximately 5×10^5CFU/mL. Equal volume of this bacterial culture was then added to each well and incubated at 37° C. for 18 h. After incubation, the plates were read on EMax® Plus microplate reader (Molecular Devices, Sunnyvale, Calif., USA) at 590 nm. MIC was recorded as wells with the lowest concentration of drugs with no bacterial growth. The fractional inhibitory concentration (FIC) for each antibiotic was calculated by dividing the MIC of the antibiotic in the presence of adjuvant by the MIC of the antibiotic alone. Similarly, the FIC of adjuvant was calculated by dividing the MIC of the adjuvant in the presence of antibiotic by the MIC of the adjuvant alone. FIC index is the sum of both FICs. FIC indices of <0.5 were deemed synergistic; 0.5-4, no interaction; and >4, antagonistic.

The next test relates to PAO750. The test is classed as cell-based, Pseudomonas aeruginosa. To be noted: for MIC of antibiotic alone in PAO750: PAO750 efflux-deficient.
Source text: as §1, §2, §3

Another test relates to PA 114228. Put plainly: Checkerboard combination study / MIC. To be noted: for MICCombination (antibiotic): MIC of antibiotic combined with compound 2; for FICI: antibiotic + compound 2; for MICAntibiotic: antibiotic alone. The test is classed as cell-based, Pseudomonas aeruginosa.
Test [1] relates to wild type P. aeruginosa PAO1. The experiment in a line: Time-kill assay. The test is classed as cell-based, Pseudomonas aeruginosa. The note with it: WT PAO1; for interaction with compound 2 in time-kill: 24 h; for time-kill effect, antibiotic alone: at MIC (aztreonam 4 μg/mL, meropenem 1 μg/mL). Here is the method: (§4) Time-kill curves typically reveal the kinetics of bacterial growth and death, with respect to time, at different antimicrobial concentrations. An antibiotic could either be bactericidal or bacteriostatic under specific growth conditions. Bactericidal activity is defined as a ≥3-log reduction in the total CFU/mL from the original inoculum over 24 hours while bacteriostatic activity is defined as maintenance of <3-log reduction in the total CFU/mL from the original inoculum (44). […] Growth curves were initially performed to ensure that strains will reach a stable early- to mid-log phase after 4 h of pre-incubation in antimicrobial-free LB medium.
(§5) Time-kill assay. Time-kill curve analyses were performed by culturing P. aeruginosa in LB medium, in the presence of antibiotics alone and in combination with test adjuvants. MICs of antibiotics and adjuvants were determined before the experiment following CLSI microbroth dilution guidelines. Growth curves were initially performed to confirm that all strains will reach a stable early- to mid-log phase after 4 h of pre-incubation in antimicrobial-free LB medium. A 0.5 McFarland inoculum of each strain was prepared in sterile 0.85% saline solution from an overnight grown culture. For each strain, 30 μl of the prepared inoculum was diluted to 3 ml of LB broth (containing different combinations of antimicrobial agents and adjuvants) and incubated at 37° C. shaking at 250 rpm. At specific time intervals (0, 1, 3, 6, 9, and 24 h), 100 μl was taken from each sample, serially diluted in sterile PBS, plated on LB agar plates, and incubated at 37° C. in a humid 5% CO2-enriched atmosphere. Bacteria colonies were counted after 20 h of incubation.

In another test the test system is MDR PA101885. The experiment in a line: Time-kill assay. It is filed as cell-based, Pseudomonas aeruginosa. To be noted: for interaction with compound 2 in time-kill: 24 h; for time-kill effect, antibiotic + compound 2: CLSI breakpoint concentration + 4.4 μM or 8.7 μM compound 2, after about 6 h; for time-kill effect, antibiotic alone: at CLSI breakpoint concentration (aztreonam 8 μg/mL, meropenem 2 μg/mL). Here is the method: as §4, §5

The test system of test [2] is MDR PA101885-challenged larvae. The experiment in a line: Galleria mellonella infection model, efficacy. The test is classed as in vivo. To be noted: after 24 h.
Description: In vivo synergistic effects were determined using Galleria mellonella infection model, as previously described (20). Briefly, worms were purchased from The Worm Lady® Live Feeder (ON, Canada), stored in their natural habitat at 16° C., and used within 10 days of delivery. The worms (average weight of 250 mg) were used for tolerability and efficacy studies. Tolerability study was performed by injecting 10 μL of antimicrobial agents only at concentrations equivalent to 100 mg/kg or 200 mg/kg. The worms (ten in each group) were incubated at 37° C. and monitored for 96 h. For efficacy studies, the virulence and bacterial load required to kill 100% of the worms within 12-18 h (with no treatment) was first determined, which is approximately 5 CFU. Overnight grown culture of respective MDR P. aeruginosa isolate was standardized to 0.5 McFarland standard and diluted in PBS to a final concentration of 5×10^2CFU/mL. 10 μL of this solution (5 CFU) was injected into each worm and incubated for 3 h at 37° C. […] Worms treated with 10 μL PBS or high concentrations of test antibiotics served as negative and positive control, respectively. The worms were incubated at 37° C. in Petri dishes lined with filter paper and scored for survivability every 6 h for up to 48 h. This experiment was repeated to give a total of thirty worms (n=30) in each case. Survival data curves were plotted using Kaplan-Meier survival analysis.
The subject of a further test is PA 101243. Put plainly: Checkerboard combination study / MIC. To be noted: PA 101243; for MICCombination (antibiotic): MIC of antibiotic combined with compound 2; for FICI: antibiotic + compound 2; for MICAntibiotic: antibiotic alone; for FICAntibiotic: with compound 2. It is filed as cell-based, Pseudomonas aeruginosa.
A further test relates to MDR PA108590. The experiment in a line: Time-kill assay, triple combination. The test is classed as cell-based, Pseudomonas aeruginosa. To be noted: 16 μg/mL, i.e. half MIC; MDR PA108590.
In test [3] the test system is MDR PA108590-challenged larvae. The experiment in a line: Galleria mellonella infection model, efficacy. It is filed as in vivo. To be noted: ceftazidime 1.56 mg/kg single dose. From the text:
In vivo larvae-infection model.

Another test relates to PA108590. The experiment in a line: MIC / triple combination susceptibility. It is filed as cell-based, Pseudomonas aeruginosa. To be noted: Pseudomonas aeruginosa; P. aeruginosa 108590; FIG. 8 legend. From the text: The diazabicyclooctane β-lactamase inhibitor, avibactam, is able to inhibit a wide range of serine β-lactamases (class A, C, and D) but not metallo-β-lactamases (class B) (50, 51).^50,51 However, the high concentration of avibactam required to neutralize the effects of β-lactamase enzymes in these phenotypes is indicative of concomitant permeability barriers in the isolates, such as reduced porin uptake. […] The results of this study are shown in (FIG. 6). All isolates were resistant to all three β-lactam antibiotics used for the study. […] As expected, the study with meropenem was slightly different from others.
Antimicrobial Susceptibility Assay. The in vitro antimicrobial activity of all compounds/antibiotics against a panel of bacteria was evaluated by microbroth dilution method in accordance with the Clinical and Laboratory Standards Institute (CLSI) guidelines. […]
Checkerboard Assay. […] After incubation, the plates were read on EMax® Plus microplate reader (Molecular Devices, Sunnyvale, Calif., USA) at 590 nm. MIC was recorded as wells with the lowest concentration of drugs with no bacterial growth. The fractional inhibitory concentration (FIC) for each antibiotic was calculated by dividing the MIC of the antibiotic in the presence of adjuvant by the MIC of the antibiotic alone. […]

Where only a bound is given, the exact number is not on record here.

Consider `C[C@@H](O)[C@H]1C(=O)N2C(C(=O)O)=C(S[C@@H]3CN[C@H](C(=O)N(C)C)C3)[C@H](C)[C@H]12` [Meropenem], for which, in the test with PAO200 (+ compound 2 ≤8.7 μM, PAO200), the “MIC of antibiotic + Compound 2 in PAO200” value amounted to 0.063 µg/mL and the “fold change of MIC + Compound 2 in PAO200” value was found to be 4. In addition, the “MIC of antibiotic alone in PAO200” value in the test with PAO200 came out at 0.25 µg/mL. Besides, in the test on PAO750 (+ compound 2 ≤8.7 μM, PAO750), the “MIC of antibiotic + Compound 2 in PAO750” value is 0.25 µg/mL and the “fold change of MIC + Compound 2 in PAO750” value is on record as 4. For the same compound, the “MIC of antibiotic alone in PAO750” value in the test with PAO750 was determined as 1 µg/mL. Besides, in the test on PA 114228, the “MICCombination (antibiotic)” value was found to be 2 µg/mL, the FICI is <0.28 and the MICAntibiotic was 8 µg/mL. Besides, the FICAntibiotic in the test on PA 114228 (with compound 2) turned out to be 0.250. For the same compound, in [1], the “interaction with compound 2 in time-kill” value was “indifferent” and the “time-kill effect, antibiotic alone” value is reported as “time-dependent bactericidal effect”. In addition, in the test on MDR PA101885, the “interaction with compound 2 in time-kill” value is “synergistic”; the “time-kill effect, antibiotic + compound 2” value is listed as “strongly bactericidal”; the “time-kill effect, antibiotic alone” value is “bacteriostatic effect”. The “mortality of larvae, monotherapy” value in [2] (aztreonam […], meropenem 37.5 mg/kg, compound 2 100 mg/kg) is 100%. The compound also gave a survival of larvae in test [2] (meropenem 37.5 mg/kg single dose) of 0%. The survival of larvae in test [2] (meropenem 50 mg/kg single dose) stood at 80%. In the test with PA 101243, the “MICCombination (antibiotic)” value is 2 µg/mL, the FICI was <0.25, the MICAntibiotic came out at 8 µg/mL and the FICAntibiotic is 0.250.

For orientation: MIC means the smallest concentration in the dilution series that meets the test's criterion for growth inhibition. For `CC(C)(O/N=C(\C(=O)N[C@@H]1C(=O)N2C(C(=O)[O-])=C(C[n+]3ccccc3)CS[C@H]12)c1csc(N)n1)C(=O)O` [Ceftazidime], the “MIC of antibiotic alone in PAO200” value in the test on PAO200 amounted to 2 µg/mL. Also, the “MIC of antibiotic alone in PAO750” value in the test on PAO750 was 1 µg/mL. In addition, the “MICCombination (antibiotic)” value with PA 114228 turned out to be 1 µg/mL; with PA 101243 it was 8 µg/mL. In addition, the FICI is on record as <0.19 with PA 114228 and <0.13 with PA 101243. Moreover, the MICAntibiotic in the test on PA 114228 amounted to 8 µg/mL; in the test on PA 101243, 64 µg/mL. Also, in the test with MDR PA108590, the “time-kill effect, alone” value was “bactericidal effects after 3 h”. Also, the survival of larvae in test [3] (after 24 h) worked out at 50%; in test [3] (after 36 h) it was 10%. The MIC with PA108590 is 0.032 µg/mL.

Consider `C[C@H]1[C@H](NC(=O)/C(=N\OC(C)(C)C(=O)O)c2csc(N)n2)C(=O)N1S(=O)(=O)O` [Aztreonam], for which the “MIC of antibiotic + Compound 2 in PAO200” value with PAO200 (+ compound 2 ≤8.7 μM, PAO200) came out at 0.016 µg/mL. Moreover, the “MIC of antibiotic alone in PAO200” value in the test on PAO200 turned out to be 0.25 µg/mL. Besides, the “MIC of antibiotic + Compound 2 in PAO750” value in the test on PAO750 (+ compound 2 ≤8.7 μM, PAO750) came out at 0.031 µg/mL. Also, the “MIC of antibiotic alone in PAO750” value with PAO750 is 0.5 µg/mL. In test [1], the “interaction with compound 2 in time-kill” value is reported as “synergistic” and the “time-kill effect, antibiotic alone” value is recorded as “time-dependent bactericidal effect”. Further, in the test with MDR PA101885, the “interaction with compound 2 in time-kill” value is “synergistic”; the “time-kill effect, antibiotic + compound 2” value is “strongly bactericidal”; the “time-kill effect, antibiotic alone” value was “bacteriostatic effect”. Further, the survival of larvae in test [2] (aztreonam 25 mg/kg single dose) was 50%. Further, in the test on PA 101243, the “MICCombination (antibiotic)” value is 8 µg/mL, the FICI was <0.26, the MICAntibiotic is 32 µg/mL and the FICAntibiotic worked out at 0.250.
